Experimental findings from PMC6154579, “Anti-Melanogenic Properties of Greek Plants. A Novel Depigmenting Agent from Morus alba Wood” (Molecules : A Journal of Synthetic Chemistry and Natural …, 2017) are described below.

Where “and” joins values, the source holds several entries; their conditions need not be identical. Identical values can stand only once. Entries after “also recorded” stand apart in the source; their conditions may differ. Like-named read-outs stand apart in the source and are kept apart here.

One series deals with B16F10 cells. Nature of the series: MTT cytotoxicity assay. Type of series: cell-based, Mouse. The note with it: high concentrations. How it is done: Mouse skin melanoma (B16F10) cells were obtained from the American Tissue Culture Collection (Manassas, VA, USA) and were maintained in Dulbecco's modified Eagle’s medium (Gibco, Thermo Fischer Scientific, Waltham, MA, USA), supplemented with 10% (v/v) fetal bovine serum (Gibco, Thermo Fischer Scientific) and 2 mM glutamine (Gibco, Thermo Fischer Scientific) in a humidified incubator at 5% CO2 and 37 °C.
MTT cytotoxicity assay was performed as described previously. Briefly, B16F10 cells were cultured at 96-wellmicroplates (5000 cells/well). After 24 h the cells were treated with different concentrations of the extracts (in control cells an appropriate amount of DMSO was added). The MTT solution (MTT, Sigma-Aldrich) (1 mg/mL in serum free, phenol red free medium) was added 48 h after the addition of test extracts. After 4 h, the MTT solution was discarded and isopropanol was added to dissolve the formazan crystals. Absorbance was recorded at 570 nm using a microplate reader (EZ Read 400 ELISA microplate reader, Biochrom, Cambridge, UK). Survival of non-treated cells was set to 100%.

The next series relates to zebrafish embryos. Put plainly: In vivo inhibition of melanogenesis assay. The note with it: embryos treated 24 to 48 hpf, ranking: most potent, followed by, weakest, Figure 5: MAM 70, F33 70, F38-42 10, F43 10, 1/5/6/7 50, 2 7, 11 10 μg/mL.
The target in another series is T1, mushroom tyrosinase (Agaricus bisporus, UniProt C7FF04).
T1 construct: purchased Sigma-Aldrich
T1 sequence (C7FF04 1-392 limits assumed): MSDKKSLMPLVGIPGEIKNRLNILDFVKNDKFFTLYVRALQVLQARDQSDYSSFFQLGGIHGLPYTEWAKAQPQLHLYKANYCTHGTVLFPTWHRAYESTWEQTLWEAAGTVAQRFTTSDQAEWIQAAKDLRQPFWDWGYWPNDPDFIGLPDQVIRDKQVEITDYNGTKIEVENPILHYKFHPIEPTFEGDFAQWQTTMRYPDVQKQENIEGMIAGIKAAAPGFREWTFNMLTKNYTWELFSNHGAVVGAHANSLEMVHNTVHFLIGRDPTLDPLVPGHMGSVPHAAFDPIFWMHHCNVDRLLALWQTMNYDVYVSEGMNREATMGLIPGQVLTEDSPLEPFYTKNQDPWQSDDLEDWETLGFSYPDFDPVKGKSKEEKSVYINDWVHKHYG
Put plainly: Tyrosinase inhibition assay (oxidation of L-DOPA, diphenolase activity).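 As to all read-outs here: dopachrome formation from L-DOPA by mushroom tyrosinase in phosphate buffer, compound preincubated with enzyme 10 min at 25 °C, inhibition versus sample-free control, enzyme-free blanks subtracted.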 The series is classed as biochemical. The note with it: for inhibition at 60 µM: read-out: Tyrosinase Inhibition % ± STD (60 μM); for inhibition at 300 µM: read-out: Tyrosinase Inhibition % ± STD (300 μM); for fold more potent tyrosinase inhibition than kojic acid: ratio of IC50 values vs reference kojic acid.

Setting [1] is: compound at 60 μM, two independent experiments.
The mark [2] stands for this setting: compound at 300 μM, two independent experiments.
Setting [3] is: diphenolase activity, three independent experiments, read-out: Tyrosinase Inhibition IC50 ± STD.

Usually inhibition stands for the share of the control response that was lost under treatment. Broadly, the IC50 is the concentration that gives 50% inhibition. For the molecule `Oc1cccc(CCc2ccc(O)cc2O)c1` [2,4,3′-Trihydroxydihydrostilbene (7), 2,4,3′-Trihydroxydihydrostilbene], the “cytotoxicity in cells (in words)” value in the series with B16F10 cells is recorded as “non-cytotoxic in high concentrations”. Moreover, in the series on zebrafish embryos, the “melanogenesis inhibition on zebrafish embryos (in words)” value (shortened to “melanogenesis inhibition”) is listed as “significantly suppress in vivo melanogenesis; also recorded: most potent; also recorded: significantly suppressed in vivo melanogenesis”. Also, the inhibition at 60 µM on mushroom tyrosinase (setting [1]) amounted to 96.3 ± 0.5%. For the same molecule, the inhibition at 300 µM on mushroom tyrosinase (setting [2]) was found to be 97.8 ± 0.1%. For the same molecule, the IC50 at mushroom tyrosinase (setting [3]) was 0.8 ± 0.15 µM. Besides, the “fold more potent tyrosinase inhibition than kojic acid” value at mushroom tyrosinase is ~ 20 fold and 20 fold.

As for `O=Cc1ccc(O)cc1O` [2,4-Dihydroxybenzaldehyde (9), 2,4-dihydroxybenzaldehyde], the inhibition at 300 µM at mushroom tyrosinase (setting [2]) is 4.9 ± 0.3%.

On to `Oc1cc(O)cc(CCc2ccc(O)cc2O)c1` [Dihydrooxyresveratrol (5), Dihydrooxyresveratrol], for which the “melanogenesis inhibition” value in the series with zebrafish embryos (listed as dihydrooxyresveratrol) is “only partially inhibited the melanogenesis”. For the same molecule, at mushroom tyrosinase, the midpoint of inhibition, the IC50, lay at 0.3 ± 0.05 µM; the “fold more potent tyrosinase inhibition than kojic acid” value is reported as ~ 50 fold; the inhibition at 60 µM was 97.6 ± 0.2%; the inhibition at 300 µM was 98.2 ± 0.5%.

Turning to `CC(C)=CCc1c(-c2ccc(O)cc2O)oc2c(CC=C(C)C)c(O)cc(O)c2c1=O` [Kuwanon C (2), kuwanon C], the “melanogenesis inhibition” value in the series with zebrafish embryos is recorded as “weakest inhibitor of melanogenesis”. The molecule also had an IC50 against mushroom tyrosinase of 76.2 ± 1.1 µM. Further, the inhibition at 60 µM at mushroom tyrosinase (setting [1]) came out at 46.5 ± 1.3%. For the same molecule, the inhibition at 300 µM at mushroom tyrosinase (setting [2]) was 75.6 ± 1.2%.

As for `CC(C)=CCc1c(-c2ccc(O)cc2O)oc2c(C3C=C(C)CC(c4ccc(O)cc4O)C3C(=O)c3ccc(O)cc3O)c(O)cc(O)c2c1=O` (stereo not drawn) [Kuwanon G (12), kuwanon G], at mushroom tyrosinase, the 50% inhibitory concentration (IC50) came to 27.5 ± 1.2 µM, the inhibition at 60 µM stood at 59.1 ± 1.4% and the inhibition at 300 µM amounted to 77.8 ± 2.8%.

For the molecule `CC(C)=CCc1c(O)ccc(C(=O)C2C(c3c(O)cc(O)c4c(=O)c(CC=C(C)C)c(-c5ccc(O)cc5O)oc34)C=C(C)CC2c2ccc(O)cc2O)c1O` (stereo not drawn) [Kuwanon H (8), kuwanon H], the IC50 at mushroom tyrosinase is > 100 µM. Further, the inhibition at 60 µM at mushroom tyrosinase (setting [1]) came to 46 ± 2.9%. For the same molecule, the inhibition at 300 µM on mushroom tyrosinase (setting [2]) was found to be 49 ± 2.6%.

For `Oc1cc(O)cc(-c2cc3ccc(O)cc3o2)c1` [Moracin M (11), moracin M], on mushroom tyrosinase, the IC50 is 8 ± 0.6 µM. Besides, the inhibition at 60 µM on mushroom tyrosinase (setting [1]) worked out at 61.3 ± 1.2%. The inhibition at 300 µM at mushroom tyrosinase (setting [2]) worked out at 87.2 ± 0.5%.

As to `CC(C)=CCc1c(-c2ccc(O)cc2O)oc2c3c(cc(O)c2c1=O)OC(C)(C)C=C3` [Morusin (10), morusin], the IC50 against mushroom tyrosinase was > 100 µM. The inhibition at 60 µM at mushroom tyrosinase (setting [1]) came to 31 ± 3.2%. For the same molecule, the inhibition at 300 µM on mushroom tyrosinase (setting [2]) stood at 49.9 ± 2.2%.

Turning to `OC[C@H]1O[C@@H](Oc2cc(O)cc(/C=C/c3ccc(O[C@@H]4O[C@H](CO)[C@@H](O)[C@H](O)[C@H]4O)cc3O)c2)[C@H](O)[C@@H](O)[C@@H]1O` [Mulberroside A (3), mulberroside A], the IC50 on mushroom tyrosinase is > 100 µM. For the same molecule, the inhibition at 60 µM at mushroom tyrosinase (setting [1]) amounted to 43.1 ± 0.7%. At mushroom tyrosinase (setting [2]), the inhibition at 300 µM was 58.3 ± 1.4%.

For the molecule `Oc1cc(O)cc(/C=C/c2ccc(O)cc2O)c1` [Oxyresveratrol (1), oxyresveratrol], in the series with zebrafish embryos, the “melanogenesis inhibition” value was “significantly suppress in vivo melanogenesis; also recorded: most potent”.

`Oc1cccc(O)c1` [Resorcinol (4), resorcinol] had an IC50 against mushroom tyrosinase of 163 ± 18.2 µM. Further, the inhibition at 60 µM at mushroom tyrosinase (setting [1]) amounted to 38 ± 1.1%. Besides, the inhibition at 300 µM at mushroom tyrosinase (setting [2]) was 60.4 ± 1%.

Consider `O=C1c2c(O)cc(O)cc2OC(c2ccc(O)cc2O)C1O` (stereo not drawn) [trans-Dihydromorin (6), trans-dihydromorin], for which, in the series with zebrafish embryos, the “melanogenesis inhibition” value is given as “significantly suppress in vivo melanogenesis; also recorded: most potent”. The inhibition at 60 µM on mushroom tyrosinase (setting [1]) turned out to be 73.1 ± 0.6%. Besides, the inhibition at 300 µM on mushroom tyrosinase (setting [2]) amounted to 94.3 ± 0.1%. Also, the IC50 at mushroom tyrosinase (setting [3]) amounted to 9.4 ± 1.3 µM.
